Non-standard residues stand in square brackets, D forms with d. Residues, ends and D or L forms follow the SMILES beside them. *: point of attachment. Dolaproine = CO[C@@H]([C@@H]1CCCN1)[C@@H](C)C(=O)O; Dil = CC[C@H](C)[C@H](NC)[C@@H](CC(=O)O)OC; X1 = C[C@@H](N*)[C@@H](O)c1ccccc1; NMeV = CN[C@H](C(=O)O)C(C)C
Assays:
Type in all cases: cell-based
[1] = test system: KMS-27, NCI-H929 and KMS-21-BM cancer cell lines; experiment: Internalization and cell proliferation assay, statements across the three cancer cell lines; conditions: range across the three cell lines; dosed directly, 5 days, CellTiter-Glo
Procedure: (§1) The internalization activity of CD48 antibodies were tested against three endogenous cancer cell lines: KMS-27: JCRB No. JCRB1188 cultured in RPMI-1640+10% FBS; NCI-H929: ATCC No. CRL-9068 cultured in RPMI-1640+10% FBS+0.05 mM 2-mercaptoethanol; and KMS-21-BM: JCRB No. JCRB1185 cultured in RPMI-1640+10% FBS.
CD48 antibodies were synthesized and expressed generally as described in Example 5. Cell lines were cultured in media that is optimal for their growth at 5% CO2, 37° C. in a tissue culture incubator. Prior to seeding for the proliferation assay, the cells were split at least 2 days before the assay to ensure optimal growth density. On the day of seeding, cell viability and cell density were determined using a cell counter (Vi-Cell XR Cell Viability Analyzer, Beckman Coulter). Cells with higher than 85% viability were seeded in white clear bottom 384-well TC treated plates (Corning cat. #3765). […] Plates were incubated at 5% CO2, 37° C. for 5 days in a tissue culture incubator, after which cell viability was assessed through the addition of 25 μL of CellTiter Glo® (Promega, cat #G7573), a reagent which lyses cells and measures total adenosine triphosphate (ATP) content. Plates were incubated at room temperature for 10 minutes to stabilize luminescent signals prior to reading using a luminescence reader (EnVision Multilabel Plate Reader, PerkinElmer). […]

NCI-H929 = experiment: Internalization and cell proliferation assay (CellTiter-Glo, with secondary anti-human Fc-VC-MMAE ADC)
Procedure: as §1
(§2) CD48 antibodies were synthesized and expressed generally as described in Example 5. Cell lines were cultured in media that is optimal for their growth at 5% CO2, 37° C. in a tissue culture incubator. Prior to seeding for the proliferation assay, the cells were split at least 2 days before the assay to ensure optimal growth density. On the day of seeding, cell viability and cell density were determined using a cell counter (Vi-Cell XR Cell Viability Analyzer, Beckman Coulter). Cells with higher than 85% viability were seeded in white clear bottom 384-well TC treated plates (Corning cat. #3765). Cells were seeded at a density of 1,000 cells per well in 40 μL of standard growth media. Plates were incubated at 5% CO2, 37° C. overnight in a tissue culture incubator. The next day free MMAE payload, a CD48A-CysMab-VC-MMAE ADC (synthesis described in Example 5), CD48 antibodies, and a non-targeting isotype antibody were prepared at 10× in standard growth media. The MMAE free payload and CD48A-CysMab-VC-MMAE ADC were added to the cells resulting in final concentrations of 0.007-150 nM and a final volume of 50 μL per well. The prepared antibody treatments, including CD48 IgGs and a non-targeting isotype antibody, were then added to the cells resulting in final concentrations of 0.001-20 nM and a final volume of 45 μL per well. An anti-human Fc-VC-MMAE ADC (DAR2.0) was prepared at 10× in standard growth media. The prepared ADC was then added to the cells resulting in a final concentration of 60 nM and a final volume of 50 μL per well. Each drug concentration was tested in quadruplets. Plates were incubated at 5% CO2, 37° C. for 5 days in a tissue culture incubator, after which cell viability was assessed through the addition of 25 μL of CellTiter Glo® (Promega, cat #G7573), a reagent which lyses cells and measures total adenosine triphosphate (ATP) content. Plates were incubated at room temperature for 10 minutes to stabilize luminescent signals prior to reading using a luminescence reader (EnVision Multilabel Plate Reader, PerkinElmer). To evaluate the effect of the drug treatments, luminescent counts from wells containing untreated cells (100% viability) were used to normalize treated samples. A variable slope model was applied to fit a nonlinear regression curve to the data in GraphPad PRISM version 7.02 software. IC50 and Amax values were extrapolated from the resultant curves.
(§3) The dose response curves of representative cancer cell lines are shown in FIG. 2A (KMS-27), FIG. 2B (NCI-H929), and FIG. 2C (KMS-21-BM).

KMS-21-BM = experiment: as above
Procedure: as §1, §2, §3

KMS-27 = experiment: as above; conditions: KMS-27, CellTiter-Glo
Procedure: as §1, §2, §3

CC[C@H](C)[C@@H]([C@@H](CC(=O)N1CCC[C@H]1[C@H](OC)[C@@H](C)C(=O)N[C@H](C)[C@@H](O)c1ccccc1)OC)N(C)C(=O)[C@@H](NC(=O)[C@@H](NC)C(C)C)C(C)C [MMAE] (H-[NMeV]V[Dil][Dolaproine]-X1)
IC50 [1]: 0.021 to 0.116 nM | IC50 (NCI-H929): 0.116 nM | Span (Amax) (NCI-H929): 88.5 | IC50 (KMS-21-BM): 0.024 nM | Span (Amax) (KMS-21-BM): 72.9 | IC50 (KMS-27): 0.021 nM | Span (Amax) (KMS-27): 83.9
